# Data: publication PMC6222891, “Bioinspired Honokiol Analogs and Their Evaluation for Activity on the Norepinephrine Transporter” (Molecules : A Journal of Synthetic Chemistry and Natural …, 2018)
# Molecular target: T1, human norepinephrine transporter (hNET) (Homo sapiens, UniProt P23975)
# T1 construct: expressed in transfected cells
# Experiment: fluorescent neurotransmitter transporter uptake assay (plate reader)
# Type: cell-based
# Details: HEK-hNET-hVMAT2-mCherry cells; compounds selected for follow-up assays
# Procedure: Cell line: All screening was done in a line of human embryonic kidney cells stably expressing the human norepinephrine transporter and the vesicular monoamine transporter 2 (HEK-hNET- -hVMAT2-mCherry). Human VMAT2 expression, in addition to hNET, more fully recapitulates a neuronal phenotype in cell culture. Cells were imaged and fully characterized for functionality (Figure 1). […] Screening: Synthesized compounds were tested for interaction with NET via a three-step process. First, all compounds were tested using a commercially available fluorescent assay (neurotransmitter transport uptake kit, Molecular Devices, San Jose, CA, USA) for the assessment of plasmalemmal monoamine transport ability. Cells were plated in poly-D-lysine (PDL)-coated 96-well plates (Corning Inc., Corning, NY, USA) to 100% confluence. The following day, cell media (DMEM, 10% fetal bovine serum, 1% penicillin/streptomycin) was removed, and experimental media (Hank’s balanced salt solution, Sigma-Aldrich) was added. […] Plates were incubated for 1 h, then read on a fluorescent plate reader (Thermo Fisher). Experiments were conducted in triplicate. […] Cells were plated to confluence in 48-well PDL-coated plates the day prior to the experiment. For experiments, media was removed, cells were rinsed with phosphate buffered saline (PBS), and incubated with or without compounds or desipramine (10 nM to 10 μM, non-specific uptake measured by addition of 100 μM desipramine) for ten minutes at 37 °C. Dopamine (1 μM total concentration with 200 nM ^3H-dopamine tracer) was added and uptake proceeded for 10 min at 37 °C. Cells were then rinsed three times with PBS, lysed with 0.1 N NaOH, and measured via liquid scintillation counting (Beckman Coulter, Brea, CA, USA). Finally, each selected compound was visualized with high-content imaging using the Array Scan VTI HCS (Cellomics). Cells were seeded to 80% confluence in PDL-coated, glass-bottom 96-well plates. Media was removed and DMEM without phenol red with or without compounds or desipramine (10 nM to 10 μM) was added. Following a one-hour incubation, cells were imaged. Forty-nine contiguous fields per well were taken and total fluorescence in the green channel was reported.
# Figure 1 Plate reader-based fluorescent assay using human NET in a validation assay of the scree-ning strategy using the known NET inhibitor desipramine as a positive control. […] (C) Finally, uptake was visualized using high content imaging with the Array Scan VTI HCS (Cellomics, Thermo Fisher Scientific, Waltham, MA, USA) to visualize nuclei (stained with DAPI), VMAT2-mCherry, and dye. All experiments were conducted in triplicate and analyzed with nonlinear regression analysis in GraphPad Prism (GraphPad Software, La Jolla, CA, USA). Scale: […].
# T1 sequence (P23975 whole entry): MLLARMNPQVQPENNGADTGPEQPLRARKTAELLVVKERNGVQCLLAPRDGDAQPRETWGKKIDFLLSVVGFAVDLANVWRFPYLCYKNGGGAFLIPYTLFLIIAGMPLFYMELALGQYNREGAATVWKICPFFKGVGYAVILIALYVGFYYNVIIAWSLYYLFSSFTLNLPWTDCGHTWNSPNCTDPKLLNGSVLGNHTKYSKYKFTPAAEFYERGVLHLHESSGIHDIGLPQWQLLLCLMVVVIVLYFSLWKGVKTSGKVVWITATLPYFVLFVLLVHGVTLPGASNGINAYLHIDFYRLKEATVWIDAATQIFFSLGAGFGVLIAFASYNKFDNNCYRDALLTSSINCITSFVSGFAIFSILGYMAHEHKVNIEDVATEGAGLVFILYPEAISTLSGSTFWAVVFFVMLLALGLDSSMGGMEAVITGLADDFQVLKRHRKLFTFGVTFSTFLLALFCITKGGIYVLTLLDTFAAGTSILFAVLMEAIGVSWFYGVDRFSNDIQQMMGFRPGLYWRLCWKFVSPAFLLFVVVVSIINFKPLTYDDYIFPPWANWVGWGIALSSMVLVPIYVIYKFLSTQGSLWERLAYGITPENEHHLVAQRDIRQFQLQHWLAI
row,SMILES,modulation of transport activity in the fluorescent screen (ranking)
1,CC(C)(C)c1ccc(O)c(-c2cc(C(C)(C)C)ccc2O)c1 [Compound M6],most potent modulators of transport activity
2,"C=CCc1ccc(O)c(-c2ccc(OC)c(CC=C)c2)c1 [Compound H11, 4′-O-methylhonokiol]",most potent modulators of transport activity
3,"C=CCc1cc(Cc2cccc(CC=C)c2OC)ccc1OC [Compound C4a, 3,3′-Diallyl-2,4′-dimethoxy-diphenyl-methan]",most potent modulators of transport activity
4,C=CCc1ccc(OC)c(-c2ccc(OC)c(CC=C)c2)c1 [Compound H16],most potent modulators of transport activity
5,C=CCc1cc(NC(C)=O)c(O)c(-c2ccc(OC)c(CC=C)c2)c1 [Compound H8],most potent modulators of transport activity
6,CCCc1ccc(OC)c(-c2ccc(OC)c(CCC)c2)c1 [Compound H20],most potent modulators of transport activity
